# In PubChem BioAssay (NCI):
# “And” between values parts separate entries of the source, which are not always exact repeats. Identical values can stand only once.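 Briefly, cells in 96-well plates were exposed to five compound concentrations for 48 h, and endpoints were estimated by linear interpolation. Here, GI50 denotes the concentration required for 50% inhibition of growth. TGI is the concentration that stops growth completely.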
# Experiments:
# Assay in all cases: NCI anticancer screen, dose series, 48 h
# M14 melanoma = tested on: M14 melanoma
# IGROV1 ovarian = tested on: IGROV1 ovarian
# SNB-75 CNS = tested on: SNB-75 CNS
# SR leukemia = tested on: SR leukemia
# COLO 205 colon = tested on: COLO 205 colon
# SF-539 CNS = tested on: SF-539 CNS
# SK-MEL-28 melanoma = tested on: SK-MEL-28 melanoma
# UO-31 renal = tested on: UO-31 renal
# HS 578T breast = tested on: HS 578T breast
# OVCAR-5 ovarian = tested on: OVCAR-5 ovarian
SMILES,TGI (M14 melanoma),TGI (IGROV1 ovarian),TGI (SNB-75 CNS) [µM],TGI (SR leukemia) [µM],TGI (COLO 205 colon) [µM],TGI (SF-539 CNS) [µM],TGI (SK-MEL-28 melanoma) [µM],TGI (UO-31 renal) [µM],TGI (HS 578T breast) [µM],TGI (OVCAR-5 ovarian) [µM],GI50 (M14 melanoma),GI50 (IGROV1 ovarian),GI50 (SNB-75 CNS) [µM],GI50 (SR leukemia) [nM],GI50 (COLO 205 colon),GI50 (SF-539 CNS) [µM],GI50 (SK-MEL-28 melanoma),GI50 (UO-31 renal),GI50 (HS 578T breast),GI50 (OVCAR-5 ovarian) [µM]
CCc1[nH]nc(C(N)=O)c1N=NN(C)C,> 100 µM,> 100 µM,> 100,38.9,> 100,> 100,> 100,> 100,> 100,–,–,–,–,–,–,–,–,–,–,–
COc1ccccc1NC(=O)CC(=O)n1nc(C)c(N=Nc2ccccc2Cl)c1C,> 100 µM,> 100 µM,57.2,97.9,> 100,> 100,> 100,> 100,> 100,> 100,–,–,–,–,–,–,–,–,–,–
CN(/N=C/c1ccccc1O)c1ccc2ccccc2n1,> 100 µM,42.5 µM,–,36.8,> 100,37.1,> 100,35.2,72.8,> 100,–,–,–,–,–,–,–,–,–,–
Cc1ccc2[nH]c(O)c(N=Nc3ccccc3[N+](=O)[O-])c2c1,> 100 µM,20 µM,> 50,32.6,> 100,4.78,> 100,9.3,28.9,> 84.3,–,–,–,–,–,–,–,–,–,–
O=C(O)CN1C(=O)CN=C(c2ccccn2)c2cc(Cl)ccc21,> 100 µM,> 100 µM,> 100,> 100,> 100,> 100,> 100,> 100,> 100,> 100,–,–,–,–,–,–,–,–,–,–
C#Cc1cccc(NC(=O)c2cccc(NC(=O)CCl)c2)c1,> 82.5 µM,19.1 µM,75.5,43.1,> 82.5,24.5,> 82.5,22.9,76.2,40.8,32.2 µM,5790 nM,12.3,4790,22 µM,13,43.1 µM,12000 nM,17.4 µM,15.8
Cc1c[nH]c(=O)n(Cc2nnc(CCC(=O)c3nc4ccccc4[nH]3)o2)c1=O,3.12 µM,> 90.4 µM,0.806,> 100,1.04,29.9,> 100,> 100,2.3,> 100,0.492 µM,575 nM,0.0558,447,0.299 µM,0.799,0.533 µM,2400 nM,0.285 µM,0.879
O=C(Nc1cccc(C(F)(F)F)c1)c1ccc(NC2=C(Cl)C(=O)N(Cc3ccccc3)C2=O)cc1,21.7 µM,4.63 µM,51.4,2.82,49.8,34.1,36.5,9.06,> 100,34.5,9.26 µM,2010 nM,23.1,421,21.9 µM,14.9,18.2 µM,2840 nM,22.1 µM,16.3
COc1ccc(-c2cc(-c3ccc(OC)cc3)nc(NCCCNc3ccnc4cc(Cl)ccc34)n2)cc1,3.28 µM,3.12 µM,24.5,5.86,3.58,21.4,3.21,2.6,44.8,3.14,1.74 µM,1510 nM,11.8,1430,1.72 µM,7.16,1.73 µM,1320 nM,14.9 µM,1.67
CCn1c(SCC(=O)Nc2cc(C(F)(F)F)ccc2Cl)nc2ccccc2c1=O,> 100 µM,> 100 µM,53.8,> 100,> 100,> 100,> 100,> 100,48.7,> 100,90.7 µM,28100 nM,17.1,> 100000,> 100 µM,40.1,53.9 µM,28400 nM,13 µM,61.9
FC(F)(F)c1nc(SCc2ccc(Cl)cc2)n[nH]1,> 100 µM,> 100 µM,> 100,> 100,> 100,> 100,> 100,> 100,> 100,> 100,–,–,–,–,–,–,–,–,–,–
COc1ccc(CNCCCN2C(=O)c3ccc4c5c(ccc(c35)C2=O)C(=O)N(CCCNCc2ccc(OC)c(OC)c2OC)C4=O)c(OC)c1OC,0.162 µM,0.189 µM,0.442,0.644,0.12,0.235,1.12,1.22,3.15,0.25,0.0855 µM,79.5 nM,0.139,165,0.0524 µM,0.102,0.508 µM,585 nM,0.568 µM,0.108
CCCS(=O)(=O)Nc1cccc(Nc2ncnc3cc(NC(=O)CCl)ccc23)c1Cl,5.16 µM,7.06 µM,5.72,5.49,5.51,4.54,9.67,7.65,17,5.64,1.11 µM,2610 nM,2.46,838,1.2 µM,1.35,2.45 µM,4060 nM,3.32 µM,2.01
CCN(CC)CCn1c(=O)c2cc(OC)c(OC)cc2c2ccc3cc4c(cc3c21)OCO4,12.7 µM,21.4 µM,15.4,2.51,16.4,0.818,24.8,17.3,45.4,36.1,0.278 µM,491 nM,0.305,41.5,0.192 µM,0.253,12 µM,405 nM,12.4 µM,8.21
COc1c(C)c(OC)c(C(=O)CC(C)C)c(OC)c1C,> 100 µM,> 100 µM,–,> 100,> 100,> 100,> 100,> 100,> 100,> 100,–,–,–,–,–,–,–,–,–,–
COc1ccc(C2CC(c3ccc(OC)cc3O)=NN2c2ccc(S(N)(=O)=O)cc2)cc1 (stereo unspecified),25.9 µM,> 100 µM,> 100,9.61,20.1,> 100,> 100,> 100,98.9,> 100,4.54 µM,6340 nM,20.8,1470,5.98 µM,30.2,15 µM,2990 nM,8.22 µM,79.9
C=CCOc1ccc(N)c([N+](=O)[O-])c1,> 100 µM,> 100 µM,> 100,> 100,> 100,> 100,> 100,> 100,> 100,> 100,–,–,–,–,–,–,–,–,–,–
CCCCC(OC(=O)c1ccc(N)cc1)C(=O)Nc1nc(CC(=O)OCC)cs1 (stereo unspecified),> 100 µM,> 100 µM,> 100,> 100,> 100,> 100,> 100,> 100,> 100,> 100,32.8 µM,51000 nM,35.2,42800,31.6 µM,33.1,42.2 µM,40900 nM,43.4 µM,> 100
NNc1nc2ccccc2o1,> 100 µM,> 100 µM,> 100,> 100,> 100,> 100,> 100,> 100,> 100,> 100,–,–,–,–,–,–,–,–,–,–
COc1ccc2nc3c(cc2c1)C(=O)CC(c1ccccc1)C3 (stereo unspecified),–,> 100 µM,> 100,> 100,> 100,5.15,> 100,> 100,> 100,> 100,–,2320 nM,0.181,379,0.732 µM,1.22,4.09 µM,589 nM,0.882 µM,6.83
OCCN(CCO)c1nc(N2CCCCC2)c2nc(N(CCO)CCO)nc(N3CCCCC3)c2n1,> 100 µM,> 100 µM,–,22.2,> 100,–,> 100,> 100,79.6,> 100,–,–,–,–,–,–,–,–,–,–
COc1ccc(C2=NN(C(C)=O)C(c3ccc(Oc4ccnc5cc(Cl)ccc45)c(OC)c3)C2)cc1 (stereo unspecified),> 100 µM,> 100 µM,6.16,> 100,–,–,–,> 100,> 100,> 100,93 µM,6290 nM,1.66,> 100000,–,–,–,> 100000 nM,5.15 µM,> 100
CCOC(=O)c1c(-c2ccc(OC)c(O)c2)c(C#N)c(=S)n(C2OC(COC(C)=O)C(OC(C)=O)C(OC(C)=O)C2OC(C)=O)c1-c1ccccc1 (stereo unspecified),40.6 µM and > 100 µM,47.7 µM and > 100 µM,–,> 100,> 100,–,> 100,> 100,> 100,> 100,18.9 µM and > 100 µM,23600 nM and > 100000 nM,–,–,27.9 µM and > 100 µM,–,32.5 µM and > 100 µM,37000 nM and > 100000 nM,38.8 µM and > 100 µM,–
